The target of this experiment is T1, full-length recombinant human NEK7 (Homo sapiens, UniProt Q8TDX7).
T1 construct: full-length recombinant human NEK7; GST (N); purchased SignalChem NO9-10G; host or cells: Sf9 insect cells (baculovirus)
The experiment can be described thus: NEK7 enzymatic assay. The format is biochemical. As to conditions: recombinant human NEK7, casein substrate, radiolabelled ATP. On the procedure: Casein substrate (from bovine milk, hydrolyzed and partially dephosphorylated mixture of α, β and κ caseins, obtained from Sigma Aldrich, catalogue #C4765, diluted in distilled water to a final concentration of 1 mg/mL) and full-length recombinant human NEK7 (expressed by baculovirus in Sf9 insect cells using a N-terminal GST tag, obtained from SignalChem, catalogue #NO9-10G, 0.1 μg/μL) were mixed in assay buffer (20 mM Hepes pH 7.5, 10 mM MgCl2, 1 mM EGTA, 0.02% Brij35, 0.02 mg/ml BSA, 0.1 mM Na3VO4, 2 mM DTT, 1% DMSO). Compounds of interest (serial 3-fold dilution in DMSO from 10 μM to 0.5 nM) or vehicle (1% DMSO) were dispensed into the kinase reaction mixture by Acoustic technology (Echo550; nanoliter range). After incubation at room temperature for 20 minutes, the kinase reaction was initiated by addition of [^33P]-ATP (specific activity 10 μCi/μl) and the mixture was incubated at room temperature for 2 hours. The reaction was then stopped by spotting the reaction mixture on strips of phosphocellulose P81 paper. Following washing, the radioactivity of the P81 paper was measured and kinase activity data were expressed as the percent remaining kinase activity in test samples compared to vehicle reactions. IC50 values and curve fits were obtained using Prism (GraphPad Software).
Casein substrate (from bovine milk, hydrolyzed and partially dephosphorylated mixture of α, β and κ caseins, obtained from Sigma Aldrich, catalogue #C4765, diluted in distilled water to a final concentration of 1 mg/mL, assay concentration 20 μM) and full-length recombinant human Nek7 (expressed by baculovirus in Sf9 insect cells using a N-terminal GST tag, obtained from SignalChem, catalogue #NO9-10G, 0.1 μg/μL, assay concentration 70 nM) were mixed in assay buffer (20 mM Hepes pH 7.5, 10 mM MgCl2, 1 mM EGTA, 0.02% Brij35, 0.02 mg/ml BSA, 0.1 mM […], 2 mM DTT, 1% DMSO). Compounds of interest (in DMSO, serial 3-fold dilution from 10 μM to 0.5 nM) or control (1% DMSO) were dispensed into the kinase reaction mixture by Acoustic technology (Echo550; nanoliter range). After incubation at room temperature for 20 minutes, the kinase reaction was initiated by addition of [^32P]-ATP (Specific activity 10 μCi/μl) and the mixture was incubated at room temperature for 2 hours. The reaction was then stopped by spotting the reaction mixture on strips of phosphocellulose P81 paper. Following washing, the radioactivity of the P81 paper was measured and kinase activity data were expressed as the percent remaining kinase activity in test samples compared to vehicle (dimethyl sulfoxide) reactions. IC50 values and curve fits were obtained using Prism (GraphPad Software).

The structures appear in SMILES notation.

The values that follow come from patent publication US20240317758A1 (Halia Therapeutics, Inc., priority 2021, published 2024).

T1 sequence (Q8TDX7 whole entry): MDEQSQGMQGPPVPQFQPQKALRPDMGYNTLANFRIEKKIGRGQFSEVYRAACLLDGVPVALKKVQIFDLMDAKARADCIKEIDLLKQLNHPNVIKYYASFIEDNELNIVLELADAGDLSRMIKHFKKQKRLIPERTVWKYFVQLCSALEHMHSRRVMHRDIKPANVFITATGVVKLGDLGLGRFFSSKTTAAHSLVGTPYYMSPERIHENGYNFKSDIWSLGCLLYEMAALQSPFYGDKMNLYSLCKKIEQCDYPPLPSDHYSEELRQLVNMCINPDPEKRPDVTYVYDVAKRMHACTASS

As to `CN1CCC(Oc2ccc(NC(=O)Nc3ccc(-c4cn(C5CC5)c5ncnc(N)c45)cc3F)cc2C(F)(F)F)C(F)C1` (single isomer, unassigned) [Example I-89, 1-(4-(4-amino-7-cyclopropyl-7H-pyrrolo[2,3-d]pyrimidin-5-yl)-2-fluorophenyl)-3-(4-((3-fluoro-1-methylpiperidin-4-yl)oxy)-3-(trifluoromethyl)phenyl)urea], the IC50 (in general, the concentration needed to halve the response being measured) was 100 to 500 nM.
With `Nc1ncnc2c1c(-c1ccc(NC(=O)Nc3ccc(OC4CCN(C5COC5)CC4F)c(C(F)(F)F)c3)c(F)c1)cn2C1CC1` (single isomer, unassigned) [Example I-91, 1-(4-(4-amino-7-cyclopropyl-7H-pyrrolo[2,3-d]pyrimidin-5-yl)-2-fluorophenyl)-3-(4-((3-fluoro-1-(oxetan-3-yl)piperidin-4-yl)oxy)-3-(trifluoromethyl)phenyl)urea] the figure was 100 to 500 nM; with `Nc1ncnc2c1c(-c1ccc(NC(=O)Nc3ccc(OC4CCN(C5COC5)CC4F)c(C(F)(F)F)c3)c(F)c1)cn2C1CC1` (single isomer, unassigned) [Example I-92, 1-(4-(4-amino-7-cyclopropyl-7H-pyrrolo[2,3-d]pyrimidin-5-yl)-2-fluorophenyl)-3-(4-((3-fluoro-1-(oxetan-3-yl)piperidin-4-yl)oxy)-3-(trifluoromethyl)phenyl)urea], 100 to 500 nM.
As to `Nc1ncnc2c1c(-c1ccc(NC(=O)Nc3ccc(CN4CCOCC4)cc3F)c(F)c1)cn2C1CC1` [Example I-1, 1-(4-(4-amino-7-cyclopropyl-7H-pyrrolo[2,3-d]pyrimidin-5-yl)-2-fluorophenyl)-3-(2-fluoro-4-(morpholinomethyl)phenyl)urea], the IC50 is > 2000 nM.
For `Nc1ncnc2c1c(-c1ccc(NC(=O)Nc3ccc(CN4CCOCC4)c(F)c3)c(F)c1)cn2C1CC1` [Example I-2, 1-(4-(4-amino-7-cyclopropyl-7H-pyrrolo[2,3-d]pyrimidin-5-yl)-2-fluorophenyl)-3-(3-fluoro-4-(morpholinomethyl)phenyl)urea], the IC50 is > 2000 nM.
The value for `CN1CC2CCC(C1)N2Cc1ccc(NC(=O)Nc2ccc(-c3cn(C4CC4)c4ncnc(N)c34)cc2F)cc1C(F)(F)F` [Example I-4, 1-(4-(4-amino-7-cyclopropyl-7H-pyrrolo[2,3-d]pyrimidin-5-yl)-2-fluorophenyl)-3-(4-((3-methyl-3,8-diazabicyclo[3.2.1]octan-8-yl)methyl)-3-(trifluoromethyl)phenyl)urea] was 100 to 500 nM; that for `CN1C[C@@H]2CN(Cc3ccc(NC(=O)Nc4ccc(-c5cn(C6CC6)c6ncnc(N)c56)cc4F)cc3C(F)(F)F)C[C@@H]2C1` [Example I-5, 1-(4-(4-amino-7-cyclopropyl-7H-pyrrolo[2,3-d]pyrimidin-5-yl)-2-fluorophenyl)-3-(4-(((3aR,6aS)-5-methylhexahydropyrrolo[3,4-c]pyrrol-2(1H)-yl)methyl)-3-(trifluoromethyl)phenyl)urea] was 100 to 500 nM.
With `CN1CC2(C1)CN(Cc1ccc(NC(=O)Nc3ccc(-c4cn(C5CC5)c5ncnc(N)c45)cc3F)cc1C(F)(F)F)C2` [Example I-7, 1-(4-(4-amino-7-cyclopropyl-7H-pyrrolo[2,3-d]pyrimidin-5-yl)-2-fluorophenyl)-3-(4-((6-methyl-2,6-diazaspiro[3.3]heptan-2-yl)methyl)-3-(trifluoromethyl)phenyl)urea] the figure was > 2000 nM; with `CN1CCN(Cc2ccc(NC(=O)Nc3ccc(-c4cn(C5CC5)c5ncnc(N)c45)cc3F)cc2C(F)(F)F)C2(CC2)C1` [Example I-8, 1-(4-(4-amino-7-cyclopropyl-7H-pyrrolo[2,3-d]pyrimidin-5-yl)-2-fluorophenyl)-3-(4-((7-methyl-4,7-diazaspiro[2.5]octan-4-yl)methyl)-3-(trifluoromethyl)phenyl)urea], 100 to 500 nM; with `CN1CC2CCC1CN2Cc1ccc(NC(=O)Nc2ccc(-c3cn(C4CC4)c4ncnc(N)c34)cc2F)cc1C(F)(F)F` (stereo not drawn) [Example I-9, 1-(4-(4-amino-7-cyclopropyl-7H-pyrrolo[2,3-d]pyrimidin-5-yl)-2-fluorophenyl)-3-(4-((5-methyl-2,5-diazabicyclo[2.2.2]octan-2-yl)methyl)-3-(trifluoromethyl)phenyl)urea], 100 to 500 nM.
On to `CN1CCC(Cc2ccc(NC(=O)Nc3ccc(-c4cn(C5CC5)c5ncnc(N)c45)cc3F)cc2C(F)(F)F)CC1` [Example I-11, 1-(4-(4-amino-7-cyclopropyl-7H-pyrrolo[2,3-d]pyrimidin-5-yl)-2-fluorophenyl)-3-(4-((1-methylpiperidin-4-yl)methyl)-3-(trifluoromethyl)phenyl)urea], for which the IC50 was > 2000 nM.
The value for `CN1CCN(Cc2c(F)cc(NC(=O)Nc3ccc(-c4cn(C5CC5)c5ncnc(N)c45)cc3F)cc2C(F)(F)F)CC1` [Example I-12, 1-(4-(4-amino-7-cyclopropyl-7H-pyrrolo[2,3-d]pyrimidin-5-yl)-2-fluorophenyl)-3-(3-fluoro-4-((4-methylpiperazin-1-yl)methyl)-5-(trifluoromethyl)phenyl)urea] was < 100 nM; that for `CN1CCN(Cc2ccc(NC(=O)Nc3ccc(-c4cn(C5CC5)c5ncnc(N)c45)cn3)cc2C(F)(F)F)CC1` [Example I-14, 1-(5-(4-amino-7-cyclopropyl-7H-pyrrolo[2,3-d]pyrimidin-5-yl)pyridin-2-yl)-3-(4-((4-methylpiperazin-1-yl)methyl)-3-(trifluoromethyl)phenyl)urea] was < 100 nM.
Consider `CN1CCN(Cc2ccc(NC(=O)Nc3ccc(-c4cn(C5CCC5)c5ncnc(N)c45)cc3F)cc2C(F)(F)F)CC1` [Example I-19, 1-(4-(4-amino-7-cyclobutyl-7H-pyrrolo[2,3-d]pyrimidin-5-yl)-2-fluorophenyl)-3-(4-((4-methylpiperazin-1-yl)methyl)-3-(trifluoromethyl)phenyl)urea], for which the IC50 lay in the range of 100 to 500 nM.
With `Cc1cc(NC(=O)Nc2ccc(-c3nn(C(C)C)c4ncnc(N)c34)cc2)ccc1N1CCOCC1` [Example I-22, 1-(4-(4-amino-1-isopropyl-1H-pyrazolo[3,4-d]pyrimidin-3-yl)phenyl)-3-(3-methyl-4-morpholinophenyl)urea] the figure was 100 to 500 nM; with `Cc1cc(NC(=O)Nc2ccc(-c3nn(C4COC4)c4ncnc(N)c34)cc2)ccc1N1CCOCC1` [Example I-23, 1-(4-(4-amino-1-(oxetan-3-yl)-1H-pyrazolo[3,4-d]pyrimidin-3-yl)phenyl)-3-(3-methyl-4-morpholinophenyl)urea], > 2000 nM; with `CN1CCN(Cc2ccc(NC(=O)Nc3ccc(-c4nn(C5CC5)c5ncnc(N)c45)cn3)cc2C(F)(F)F)CC1` [Example I-30, 1-(5-(4-amino-1-cyclopropyl-1H-pyrazolo[3,4-d]pyrimidin-3-yl)pyridin-2-yl)-3-(4-((4-methylpiperazin-1-yl)methyl)-3-(trifluoromethyl)phenyl)urea], 100 to 500 nM.
With `CN1CCN(Cc2ccc(NC(=O)Nc3ccc(-c4cn(C5CC5)c5ncnc(N)c45)cc3Cl)cc2C(F)(F)F)CC1` [Example I-35, 1-(4-(4-amino-7-cyclopropyl-7H-pyrrolo[2,3-d]pyrimidin-5-yl)-2-chlorophenyl)-3-(4-((4-methylpiperazin-1-yl)methyl)-3-(trifluoromethyl)phenyl)urea] the figure was 100 to 500 nM; with `CN1CCN(Cc2ccc(NC(=O)Nc3ccc(-c4cn(C5CC5)c5ncnc(N)c45)cc3F)cc2Cl)CC1` [Example I-37, 1-(4-(4-amino-7-cyclopropyl-7H-pyrrolo[2,3-d]pyrimidin-5-yl)-2-fluorophenyl)-3-(3-chloro-4-((4-methylpiperazin-1-yl)methyl)phenyl)urea], 100 to 500 nM.
The value for `Cc1cc(NC(=O)Nc2ccc(-c3cn(C4CC4)c4ncnc(N)c34)cc2F)ccc1CN1CCN(C)CC1` [Example I-39, 1-(4-(4-amino-7-cyclopropyl-7H-pyrrolo[2,3-d]pyrimidin-5-yl)-2-fluorophenyl)-3-(3-methyl-4-((4-methylpiperazin-1-yl)methyl)phenyl)urea] was > 2000 nM.
With `CCN1CCN(Cc2ccc(NC(=O)Nc3ccc(-c4cn(C5CC5)c5ncnc(N)c45)cc3F)cc2C(F)(F)F)CC1` [Example I-41, 1-(4-(4-amino-7-cyclopropyl-7H-pyrrolo[2,3-d]pyrimidin-5-yl)-2-fluorophenyl)-3-(4-((4-ethylpiperazin-1-yl)methyl)-3-(trifluoromethyl)phenyl)urea], the IC50 was < 100 nM.
